In US20070129358A1, “Sbstituted chroman derivatives, processes for their preparation and their use as antiinflammatory agents” (priority 2005, published 2007):

Key:
[1] = molecular target: T1, progesterone receptor (PR) (Homo sapiens, UniProt P06401); assay: Progesterone receptor binding with recombinantly prepared receptor
T1 construct: made in house
T1 sequence (P06401 1-933): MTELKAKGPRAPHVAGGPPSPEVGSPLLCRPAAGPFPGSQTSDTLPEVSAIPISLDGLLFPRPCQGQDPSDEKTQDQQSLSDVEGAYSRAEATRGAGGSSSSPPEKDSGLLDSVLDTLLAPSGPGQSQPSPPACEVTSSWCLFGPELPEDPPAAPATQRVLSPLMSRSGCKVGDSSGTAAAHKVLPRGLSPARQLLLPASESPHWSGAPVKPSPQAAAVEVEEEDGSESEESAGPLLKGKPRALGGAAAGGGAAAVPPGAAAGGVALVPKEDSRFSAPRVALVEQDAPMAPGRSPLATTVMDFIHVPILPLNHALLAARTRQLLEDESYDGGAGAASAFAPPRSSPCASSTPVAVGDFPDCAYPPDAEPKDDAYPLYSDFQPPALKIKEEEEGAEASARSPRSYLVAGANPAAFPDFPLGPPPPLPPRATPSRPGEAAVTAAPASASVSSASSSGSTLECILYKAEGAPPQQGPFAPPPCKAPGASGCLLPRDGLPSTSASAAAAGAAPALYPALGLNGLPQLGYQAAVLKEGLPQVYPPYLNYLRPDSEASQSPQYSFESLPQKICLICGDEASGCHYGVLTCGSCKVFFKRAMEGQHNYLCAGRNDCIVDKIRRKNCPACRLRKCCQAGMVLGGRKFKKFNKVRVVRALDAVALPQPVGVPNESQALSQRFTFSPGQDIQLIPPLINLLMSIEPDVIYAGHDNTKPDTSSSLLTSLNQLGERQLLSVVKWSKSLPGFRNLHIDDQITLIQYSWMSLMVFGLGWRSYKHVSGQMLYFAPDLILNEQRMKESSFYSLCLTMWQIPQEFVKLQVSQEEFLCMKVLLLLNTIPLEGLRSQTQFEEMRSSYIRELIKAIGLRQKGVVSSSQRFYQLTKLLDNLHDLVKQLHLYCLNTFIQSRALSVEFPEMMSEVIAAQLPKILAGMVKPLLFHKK
Excerpt: (§1) The binding of the substances to the glucocorticoid receptor (GR) and further steroid hormone receptors (mineral corticoid receptor (MR), progesterone receptor (PR) and androgen receptor (AR)) is examined with the aid of recombinantly prepared receptors. Cytosol preparations of Sf9 cells which had been infected with recombinant baculoviruses which code for the GR are employed for the binding studies. Compared with the reference substance [^3H]-dexamethasdne, the substances show a high affinity for the GR. Thus, an IC50(GR)=20 nM and IC50(PR) >1 μM was measured for the compound of example 1 and an IC50(GR)=30 nM and IC50(PR) >1 μM was measured for the compound of example 2.

[2] = molecular target: T2, glucocorticoid receptor (GR) (Homo sapiens, UniProt P04150); assay: Glucocorticoid receptor binding with recombinantly prepared receptor, [3H]-dexamethasone as reference; details: cytosol preparations of Sf9 cells infected with recombinant baculoviruses coding for GR
T2 construct: made in house; host or cells: Sf9 cells infected with recombinant baculovirus (cytosol preparation)
T2 sequence (P04150 1-777): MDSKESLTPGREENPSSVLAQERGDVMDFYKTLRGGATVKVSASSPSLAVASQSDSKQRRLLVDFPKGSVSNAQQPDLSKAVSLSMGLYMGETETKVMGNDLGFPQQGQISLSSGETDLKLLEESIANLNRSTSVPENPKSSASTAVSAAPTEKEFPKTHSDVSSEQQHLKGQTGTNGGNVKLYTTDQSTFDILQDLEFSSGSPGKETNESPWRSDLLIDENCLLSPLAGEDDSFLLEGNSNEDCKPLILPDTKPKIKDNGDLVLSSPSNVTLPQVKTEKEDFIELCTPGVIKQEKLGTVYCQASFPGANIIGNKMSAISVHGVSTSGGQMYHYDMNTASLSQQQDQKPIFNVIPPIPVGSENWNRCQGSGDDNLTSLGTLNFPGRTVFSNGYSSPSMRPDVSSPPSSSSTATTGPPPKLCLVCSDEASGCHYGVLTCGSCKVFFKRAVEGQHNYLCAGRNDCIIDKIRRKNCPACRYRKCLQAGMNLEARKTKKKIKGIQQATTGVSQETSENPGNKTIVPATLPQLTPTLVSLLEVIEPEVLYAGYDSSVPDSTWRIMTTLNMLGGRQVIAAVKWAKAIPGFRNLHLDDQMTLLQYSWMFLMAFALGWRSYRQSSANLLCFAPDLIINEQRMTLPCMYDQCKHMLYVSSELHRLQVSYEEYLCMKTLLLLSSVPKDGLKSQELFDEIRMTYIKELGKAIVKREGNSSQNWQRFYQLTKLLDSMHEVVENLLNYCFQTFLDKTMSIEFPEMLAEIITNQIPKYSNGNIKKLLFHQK
Excerpt: as §1

## CC1(CC(O)(CNc2cccc3[nH]c(=O)ccc23)C(F)(F)F)CCOc2ccccc21 (single isomer, unassigned) [Example 2, 5-{[2-Hydroxy-3-(4-methylchroman-4-yl)-2-trifluoro-methylpropyl]amino}quinolin-2{1H}-one]
[1]
  IC50: > 1000 nM
[2]
  IC50: 30 nM

## O=c1ccc2c(NCC(O)(CC3CCOc4ccccc43)C(F)(F)F)cccc2[nH]1 (stereo not shown) [Example 1]
[1]
  IC50: > 1000 nM
[2]
  IC50: 20 nM
